Key:
Format in all cases: cell-based
[1] = tested on: T47D cells; experiment: R5020-induced proliferation by BrdU incorporation; conditions: 1.5 µM, 24 h after R5020
Procedure: T47D^M cells (1 × 10^4) were plated in a 96-well plate in the presence or absence of inhibitors 2 h prior to R5020 addition. The cell proliferation ELISA BrdU chemiluminescent assay (Roche) was performed according to the manufacturer’s instructions 24 h following hormone addition.

[2] = tested on: U-2 OS cells; experiment: DNA damage signaling by immunofluorescence (γH2A.X, 53BP1, RPA); conditions: 10 µM, 72 h
Procedure: Following siRNA knockdown for 48 h, 10 000 U-2 OS cells were seeded per well in black, clear-bottomed 96-well plates (BD Falcon) and allowed to grow for an additional 48 h. For inhibitor treatment experiments, cells were plated at 2000 per well and 10 µM TH5427 was added the following day for an additional 72 h. Cells were washed with PBS and then fixed with 4% paraformaldehyde in PBS (Santa Cruz) with 0.5% Triton X-100 for 15 min. Primary antibodies were γH2A.X (Millipore, 1:1000 or Cell Signaling, 1:1000), 53BP1 (Bethyl, 1:1000 or Abcam, 1:500) and RPA32 (Cell Signaling, 1:1000) diluted in 3% BSA/PBS and incubated at 4 °C overnight. Alexa Fluor secondary antibodies (ThermoFisher) were used at 1:1000 diluted in 3% BSA/PBS for 1 h at room temperature. DNA was counterstained with DAPI and plates were visualized using an ImageXpress high-throughput microscope (Molecular Devices) with 20x objective. Image analysis was performed with CellProfiler software (Broad Institute).

[3] = tested on: HL-60 or U-2 OS cells; experiment: cell viability by resazurin; conditions: 72 h, Supplementary Figs. 7 and 10b (HL-60, U-2 OS, T47D)
Procedure: Cell viability was assessed by resazurin[9]. 5000 HL-60 cells (or 1000 U-2 OS/2000 T47D cells) were seeded per well on a 96-well plate. The following morning, compounds (or the equivalent amount of DMSO) were added to obtain the final concentrations indicated and the cells were incubated at 37 °C for 72 h with resazurin added at 0.02 mg/mL for the last 2–6 h. Resorufin fluorescence was detected at […] with a Hidex Sense fluorescent plate reader. Viability curves were fit using the sigmoidal dose-response (variable slope) function in GraphPad Prism 7.

[4] = tested on: U-2 OS cells; experiment: modified alkaline comet assay (OGG1-specific lesions); conditions: 10 µM, 24 or 72 h
Procedure: The modified comet assay was used to determine relative amounts of OGG1-specific substrates (e.g., 8-oxo-dG) within cellular DNA[9]. U-2 OS cells were transfected with siRNA for 72 h and/or treated with DMSO/500 nM TH1579 for 24 h prior to harvesting by trypsinization. For experiments with TH5427, cells were treated for 24 or 72 h with 10 µM compound.
In brief, 120 µL of 1% agarose in PBS was added to one end of a fully-frosted microscope slide (ThermoFisher Scientific) and protected with a 24 × 40 mm coverslip to form the first layer. Once solidified at 4 °C, the second layer was made by mixing 400 µL of 1.2% low-melting agarose in PBS with 100 µL of a 1 × 10^6 cells/mL suspension in PBS kept at 37 °C. The coverslip was removed and 80 µL was added on top of the first layer, spread with a coverslip, and left to solidify at 4 °C for 5–10 minutes. Two slides were made for each condition. […]
The slides were visualized using a 10x objective and a Zeiss LSM 780 confocal or Zeiss Axiovert 35 microscope. Comets were analyzed with OpenComet (www.cometbio.org/) or Comet Assay IV (http://www.perceptive.co.uk/products/comet-assay-iv/) software and the tail moments (tail length x percent DNA in the tail) were automatically calculated. […] At least 100 cells were analyzed for each condition per replicate.

[5] = target: T1, NUDT5 in T47D cells (Homo sapiens, UniProt Q9UKK9); experiment: intact cell CETSA in T47D cells; conditions: 1.5 µM TH5427, 83 °C
T1 construct: endogenous in cells; host or cells: T47D (T47D^WT)
Procedure: (§1) For CETSA experiments with cells treated in culture, 1 × 10^6 HL-60 were treated with DMSO (0.1 % v/v final) or 20 µM compound for 3 h at 37 °C and 5% CO2 in a humidified incubator. T47D^WT cells were treated instead with 80 µM TH1659, 15 µM TH5423/5424 and 1.5 µM TH5427. The cells were harvested, washed twice with PBS and resuspended in TBS with protease inhibitors, as above. Heating was identical as before, except that immediately following heating, the cell suspensions were snap frozen in a dry ice/ethanol bath and freeze-thawed, as previously, to lyse cells. Centrifugation at 20 000 × g for 20 min at 4 °C removed cellular debris and protein aggregates, and lysates were prepared for western blotting.

[6] = target: T2, NUDT5 in HL-60 cells (Homo sapiens, UniProt Q9UKK9); experiment: drug affinity responsive target stability (DARTS); conditions: 0.74 and 2.2 µM, 4 h, HL-60 cells in culture
T2 construct: endogenous in cells; host or cells: HL-60
Procedure: Target engagement was also determined by drug affinity responsive target stability (DARTS)[33]. HL-60 cells were treated in culture with DMSO (0.1% v/v) or TH5427 at 0.7 or 2.2 µM for 4 h. Following two PBS washes, the cells were lysed with M-PER extraction buffer (ThermoFisher) supplemented with protease inhibitor cocktail (Roche). The lysates were divided into 20 µg aliquots and followed by digestion with pronase at the indicated protein to pronase ratios for 30 min at room temperature. Samples were prepared for western blotting and NUDT5 stabilization was compared with SOD1 as a loading control.

[7] = target: MTH1 (Homo sapiens, UniProt P36639); experiment: CETSA melt curve for MTH1; parameters: endogenous in cells; conditions: 20 µM
Procedure: as §1

## Cn1c(=O)c2c(nc(N3CCNCC3)n2Cc2nnc(-c3ccc(Cl)c(Cl)c3)o2)n(C)c1=O [TH5427]
[1]
  progestin-dependent proliferation, BrdU incorporation: abrogated the progestin-dependent proliferation response
[2]
  DNA damage signaling: neither induced significant DNA damage signaling
[3]
  toxicity in cell lines tested: non-toxic in cell lines tested up to 20 µM
[4]
  OGG1-specific DNA lesions: nor increased OGG1-specific DNA lesions
[5]
  NUDT5 stabilization in T47D cells: demonstrated the best ability to stabilize NUDT5 in T47D cells
[6]
  NUDT5 stabilization against protease degradation: stabilized NUDT5 against exogenous protease degradation
[7]
  thermal shift of MTH1 by CETSA: no thermal shift
